According to patent US20110098278A1 (priority 2009, published 2011):
Where “and” joins values, the source holds several entries; their conditions need not be identical. Identical values can stand only once. Entries after “also recorded” stand apart in the source; their conditions may differ. Counter-ions that a name gives are not always drawn.

Key:
[1] = system: ferret; test: Emetic activity (retching and vomiting) in the ferret
[2] = system: Sprague Dawley rat; test: PICA behavior (kaolin consumption) in the Sprague Dawley rat as surrogate for emesis; format: in vivo; conditions: for Cumulative mean ± SD kaolin consumption: 40 mg base/kg po
Experimental: This is a well established model for this purpose in the rat (Takeda N et al (1993) 45 817-21).
Once determined, a comparison was made of the effects of these doses on kaolin consumption over a 0-96 hour period in 24 h increments.
In detail groups of 10 male Sprague Dawley rats were habituated to kaolin for 3 days, then singly housed in grid-bottomed cages and habituated for a further 2 days prior to dosing. On the day of drug administration, the animals were food-deprived for 1 h prior to dosing. […] Access to a weighed quantity of food and kaolin was then restored. Food and kaolin was weighed 24, 48, 72 and 96 h after dosing.

[3] = system: rabbit stomach circular smooth muscle; test: Ex vivo rabbit stomach circular smooth muscle, electrical field stimulation; format: cell-based; conditions: rabbit stomach strips under EFS; 100 nM to 100 μM
[4] = Local galantamine concentration within the stomach after a typical dose; conditions: following a typical 24 mg dose
[5] = system: rat; test: Comparative acute toxicity (rat behavior) of sc and po galantamine; format: in vivo; conditions: individual rats
[6] = system: human stomach circular smooth muscle; test: Ex vivo human stomach circular smooth muscle, electrical field stimulation; format: cell-based; conditions: human stomach strips under EFS; 100 nM to 100 μM
[7] = 20 mg (free base)/kg oral or similar molar dose
[8] = 20 mg/kg p.o., 2 hr. observation, individual ferrets, listed as Galantamine HBr, hydrobromide

COc1ccc2c3c1O[C@H]1C[C@@H](O)C=C[C@@]31CCN(C)C2 [Galantamine, (4aS,6R,8aS)-4a,5,9,10,11,12-hexahydro-3-methoxy-11-methyl-6H-benzofuro[3a,3,2ef][2]benzazepin-6-ol hydrobromide]
animals dosed that retched [1, 7]: 55% | animals dosed that vomited [1, 7]: 40% | Total number of individual incidences of: Retching ([1]; 20 mg/kg p.o. (galantamine free base content), 2 hr. observation, individual ferrets, listed as Galantamine HBr, hydrobromide): 21 and 29 and 18 and 0 (9×) and 31 and 3 (2×) and 6 and 2 and 5 and 13 and 22 | Time (min) to onset of: Retching [1, 8]: 33 min and 3 min and 5 min (3×) and >120 min (8×) and 41 min and 11 min and 10 min and 7 min (2×) and 6 min (2×) | Time (min) to onset of: Vomiting [1, 8]: 33 min and 75 min and 5 min (2×) and >120 min (11×) and 37 min and 10 min and 13 min and 6 min and 41 min | Total number of individual incidences of: Vomiting [1, 8]: 4 (2×) and 1 (6×) and 0 (11×) and 2 | kaolin consumption compared with controls (in words) ([2]; 3.5 mg/kg subcutaneous, over the whole 96 h period): no increase at all in kaolin consumption | Cumulative mean ± SD kaolin consumption ([2]; 24 h): 2.73 ± 1.4 g | Cumulative mean ± SD kaolin consumption ([2]; 48 h): 3.36 ± 1.68 g | Cumulative mean ± SD kaolin consumption ([2]; 72 h): 4.07 ± 1.88 g | Cumulative mean ± SD kaolin consumption ([2]; 96 h, hydrobromide): 4.69 ± 2.43 g | Cumulative mean ± SD kaolin consumption ([2]; 96 h, listed as galantamine, hydrobromide): 4.69 ± 2.43 g | kaolin consumption / PICA behavior (in words) ([2]; 40 mg/kg oral, over 96 h, hydrobromide): significantly higher; also recorded: marked PICA behavior | rat kaolin consumption (g) over 24 h post-dose ([2]; single oral dose 40 mg base/kg, Mean): 1.79 g | rat kaolin consumption (g) over 24 h post-dose ([2]; single oral dose 40 mg base/kg, individual rats 1-10, hydrobromide): 1.06 g and 0.35 g and 0.02 g and 3.14 g and 4.47 g and 1.62 g and 0.16 g and 2.93 g and 3.11 g and 1.03 g | rat kaolin consumption (g) over 24 h post-dose ([2]; single subcutaneous dose of 3.5 mg base/kg, Mean (rat 7 omitted as outlier)): 0.25 g | rat kaolin consumption (g) over 24 h post-dose ([2]; single subcutaneous dose of 3.5 mg base/kg, individual rats 1-10, hydrobromide): 0.67 g and 0.36 g and 0.88 g and 0.08 g and *1.57 g and 0.00 g (3×) and 0.21 g and 0.05 g | stimulation of smooth muscle contractions (change in force production) [3]: evidence of a dose response | Local concentrations within the stomach [4]: 200 to 400 µM | Effect on rat behavior ([5]; 3.5 mg/kg sc, 2 min post dose, hydrobromide): Rat 1: purposeless chewing, mouth; also recorded: Rat 3: purposeless chewing, mouth | Effect on rat behavior ([5]; 3.5 mg/kg sc, 5 min post-dose, hydrobromide): Rat 1: purposeless chewing, mouth movements,; also recorded: Rat 3: As per 2 min | Effect on rat behavior ([5]; 3.5 mg/kg sc, 10 min post-dose, hydrobromide): Rat 1: Tremors, flattened rostral body; also recorded: Rat 3: purposeless chewing, mouth | Effect on rat behavior ([5]; 3.5 mg/kg sc, 20 min post-dose, hydrobromide): Rat 1: Quiescent, flattened body posture,; also recorded: Rat 3: Some ambulation restored symptoms | Effect on rat behavior ([5]; 3.5 mg/kg sc, 30 min post-dose, hydrobromide): Rat 1: Quiescent, flattened body posture,; also recorded: Rat 3: Some ambulation restored | Effect on rat behavior ([5]; 3.5 mg/kg sc, 45 min post-dose): Rat 1: food consumption and more | Effect on rat behavior ([5]; 3.5 mg/kg sc, 1 h, hydrobromide): Rat 1: Normal; also recorded: Rat 3: Normal | Effect on rat behavior ([5]; 40 mg/kg po, 10 min post-dose, hydrobromide): Rat 6: Quiescent, purposeless; also recorded: Rat 7: Quiescent, purposeless chewing, | Effect on rat behavior ([5]; 40 mg/kg po, 20 min post-dose, hydrobromide): Rate 6 as per 10 min + arching; also recorded: Rat 7: grooming + purposeless | Effect on rat behavior ([5]; 40 mg/kg po, 30 min post-dose): Rat 6: quiescent, purposeless chewing, | Effect on rat behavior ([5]; 40 mg/kg po, 45 min post-dose, hydrobromide): Rat 6: flattened body posture, chewing,; also recorded: Rat 7: grooming, sawdust consumption | Effect on rat behavior ([5]; 40 mg/kg po, 1 h, hydrobromide): Rat 6: flattened body posture, tremor; also recorded: Rat 7: Grooming, sawdust | Effect on rat behavior ([5]; 40 mg/kg po, 1.5 h, hydrobromide): Rat 7: quiet, falttened posture | Effect on rat behavior ([5]; 40 mg/kg po, 2 h, hydrobromide): Rat 6: much improved; also recorded: Rat 7: much improved | Effect on rat behavior ([5]; 40 mg/kg po, 3 h, hydrobromide): Rat 6: normal; also recorded: Rat 7: normal | stimulation of smooth muscle contractions (change in force production) [6]: evidence of a dose response
